Test results from paper PMC3248958 (Bioorganic & medicinal chemistry, 2011).

Target: T1, Human Aromatase (Homo sapiens, UniProt P11511)
T1 sequence (P11511 1-503): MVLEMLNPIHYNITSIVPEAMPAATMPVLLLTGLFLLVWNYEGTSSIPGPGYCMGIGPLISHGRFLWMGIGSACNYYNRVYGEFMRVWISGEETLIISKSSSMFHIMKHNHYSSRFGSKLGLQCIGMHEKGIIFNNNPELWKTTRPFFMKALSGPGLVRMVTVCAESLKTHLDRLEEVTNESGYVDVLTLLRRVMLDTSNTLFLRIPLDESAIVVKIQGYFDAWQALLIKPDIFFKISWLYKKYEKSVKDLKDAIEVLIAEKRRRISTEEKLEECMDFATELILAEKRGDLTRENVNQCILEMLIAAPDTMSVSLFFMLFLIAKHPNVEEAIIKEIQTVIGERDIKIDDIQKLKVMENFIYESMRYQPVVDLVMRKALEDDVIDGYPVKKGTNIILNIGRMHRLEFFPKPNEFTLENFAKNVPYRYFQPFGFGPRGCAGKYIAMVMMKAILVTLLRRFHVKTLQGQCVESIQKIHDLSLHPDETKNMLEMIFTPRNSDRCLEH
Test: Aromatase assay
Format: biochemical
Details: not given

| SMILES | times higher aromatase inhibitory activity than trans-resveratrol | times more potent than the lead compound 3a as an aromatase inhibitor |
| --- | --- | --- |
| c1cncc(-c2nsc(-c3cccnc3)n2)c1 [Compound 3b] | 30-125 times | greater than 250 times |

Same assay, conditions: relative to trans-resveratrol

| SMILES | times higher aromatase inhibitory activity than trans-resveratrol |
| --- | --- |
| c1cc(-c2nsc(-c3ccncc3)n2)ccn1 [Compound 3c] | 30-125 times |

System: quinone reductase 1 (QR1)
Test: Quinone reductase 1
Format: cell-based, mouse
Details: Hepa 1c1c7 cells; determined for compounds with induction ratios > 2

| SMILES | QR1 Assay CD (concentration that doubles the activity) |
| --- | --- |
| c1cc(-c2nsc(-c3ccncc3)n2)ccn1 [Compound 3c] | > 50 µM |
| Cc1ccc(-c2nsc(-c3ccc(C)cc3Br)n2)c(Br)c1 [Compound 3dd, 3,5-Bis(2-bromo-4-methylphenyl)-1,2,4-thiadiazole] | > 50 µM |
| O=[N+]([O-])c1ccc(-c2nsc(-c3ccc([N+](=O)[O-])cc3)n2)cc1 [Compound 3ff] | > 50 µM |
| COc1ccc(-c2nsc(-c3ccc(OC)cc3)n2)cc1 [Compound 3g] | > 50 µM |
| N#Cc1ccc(-c2nsc(-c3ccc(C#N)cc3)n2)cc1 [Compound 3gg, 4,4′-(1,2,4-Thiadiazole-3,5-diyl)dibenzonitrile] | > 50 µM |
| N#Cc1cccc(-c2nsc(-c3cccc(C#N)c3)n2)c1 [Compound 3hh, 3,3′-(1,2,4-Thiadiazole-3,5-diyl)dibenzonitrile] | > 50 µM |
| Oc1ccc(-c2nsc(-c3ccc(O)cc3)n2)cc1 [Compound 3jj] | > 50 µM |
| Ic1ccc(-c2nsc(-c3ccc(I)cc3)n2)cc1 [Compound 3l, 3,5-Bis(4-iodophenyl)-1,2,4-thiadiazole] | > 50 µM |
| Nc1ccc(-c2nsc(-c3ccc(N)cc3)n2)cc1 [Compound 3ll, 3,5-Bis(4-aminophenyl)-1,2,4-thiadiazole] | > 50 µM |
| Clc1ccc(-c2nsc(-c3ccc(Cl)c(Cl)c3)n2)cc1Cl [Compound 3v, 3,5-Bis(3,4-dichlorophenyl)-1,2,4-thiadiazole] | > 50 µM |
| Cc1ccc(-c2nsc(-c3ccc(C)cc3)n2)cc1 [Compound 3x, 3,5-Di-p-tolyl-1,2,4-thiadiazole] | > 50 µM |
| CCCCc1ccc(-c2nsc(-c3ccc(CCCC)cc3)n2)cc1 [Compound 3z, 3,5-Bis(4-butylphenyl)-1,2,4-thiadiazole] | > 50 µM |
| Oc1ccc(CCc2cc(O)cc(O)c2)cc1 [dihydroresveratrol, reference compound] | > 50 µM |

Same assay, conditions: Hepa 1c1c7 cells; positive control

| SMILES | QR1 Assay CD of positive control |
| --- | --- |
| O=c1cc(-c2ccc(Br)cc2)oc2ccccc12 [4'-Bromoflavone, reference compound] | 0.01 M |

System: not given
Test: not given
Details: tested at 400 μM of each compound

| SMILES | DPPH assay % inhibition |
| --- | --- |
| c1cncc(-c2nsc(-c3cccnc3)n2)c1 [Compound 3b] | -16.1±1.1% |
| c1cc(-c2nsc(-c3ccncc3)n2)ccn1 [Compound 3c] | -35.6±0.4% |
